Values quoted from earlier work, collected in patent US20120195875A1, “DETECTION OF IMMUNE MODULATION RESULTING FROM REDUCED PROTEIN PHOSPHATASE 2A ACTIVITY” (CEDARS-SINAI MEDICAL CENTER, priority 2011, published 2012).

Experiments:
[1] = tested on: murine peritoneal macrophages

| Compound | LPS-induced TNF-α, IL-1β, IFN-β, IP-10, IRF-1, and TNFR-2 release (macrophages) | LPS-induced macrophage responses (macrophages) | LPS tolerance ([1]; 1 h before the first or 16 h before the second LPS stimulation) | p38 phosphorylation ([1]; in response to primary LPS stimulation) | phosphorylation of ERK-1/ERK-2, JNK/SAPK and p38/SAPK-2 ([1]; in response to second LPS stimulation) |
| --- | --- | --- | --- | --- | --- |
| COC[C@@H]([C@H](O)[C@H](O)C(=O)NCC[C@H](C)c1nc(/C=C/C[C@@H]2O[C@]3(C[C@@H](O)[C@@H]2C)O[C@H]([C@H](C[C@H](O)[C@H](C)[C@H](O)[C@H](C)/C=C(C)/C(C)=C/C=C/C(C)=C\C#N)OC)[C@H](OP(=O)(O)O)C3(C)C)co1)N(C)C [calyculin A] | inhibit | inhibits | – | – | – |
| C=C1[C@@H](O)[C@@H]2O[C@]3(CC[C@H](/C=C/[C@@H](C)[C@@H]4CC(C)=C[C@@]5(O[C@H](C[C@@](C)(O)C(=O)O)CC[C@H]5O)O4)O3)CC[C@H]2O[C@@H]1[C@@H](O)C[C@H](C)[C@H]1O[C@@]2(CCCCO2)CC[C@H]1C [okadaic acid] | – | – | reversed LPS tolerance | inhibition | restored and prolonged |
